Tests used:
PFK1 = PFK1 activity in PMN lysates; format: cell-based, human; conditions: for activation-induced reduction in PFK1 activity: neutrophils treated with PMA, LPS, or cholesterol crystals
Experimental: PFK1 activity assays from neutrophil lysates were modified from Abrantes et al., 2012. Briefly, neutrophils (10^7) were cultured with 0.5 μM NA-11 for 30 min, and then stimulated with 50 nM PMA, 5 μg/mL cholesterol crystals, 10 μg/mL LPS or 25 μM nigericin for 30 min. Cells were lysed in 10 mM PBS, 1% Triton X-100, and 1 x EDTA-free protease inhibitor cocktail on ice for 10 min. The soluble protein lysates were quantified by BCA assay (Pierce) and adjusted to 0.3125 mg/mL with lysis buffer. Lysate (80 μL) was mixed with 100 μL 2x enzyme cocktail solution (100 mM Tris-HCL pH7.4, 10 mM MgCl2, 0.5 mM ATP, 0.3 mM NADH, 1.35 units/mL Aldolase, 10 units/mL Triose phosphate isomerase, 4 units/mL glycerophosphate dehydrogenase, 20 mM ammonium sulfate) equilibrated to reach room temperature for 5 min. 20 μL of Fructose-6-phosphate (40 mM) was added and the reaction monitored for NADH decrease (absorbance at 340 nm) every 30 s for 30 min. Specific activity is in pmoles FBP per min per mg lysate.

[1] = molecular target: T1, PFKL (K315R, V545L, and V582M), PFKL3Mut (Homo sapiens, UniProt P17858, K315R/V545L/V582M); assay: Recombinant PFKL3Mut activity assay; format: biochemical; conditions: for activation of PFKL3Mut: 3.1 mM ATP, 1.5 mM F6P
T1 construct: made in house; host or cells: Sf9 insect cells (baculovirus)
T1 sequence (P17858 1-780 K315R/V545L/V582M): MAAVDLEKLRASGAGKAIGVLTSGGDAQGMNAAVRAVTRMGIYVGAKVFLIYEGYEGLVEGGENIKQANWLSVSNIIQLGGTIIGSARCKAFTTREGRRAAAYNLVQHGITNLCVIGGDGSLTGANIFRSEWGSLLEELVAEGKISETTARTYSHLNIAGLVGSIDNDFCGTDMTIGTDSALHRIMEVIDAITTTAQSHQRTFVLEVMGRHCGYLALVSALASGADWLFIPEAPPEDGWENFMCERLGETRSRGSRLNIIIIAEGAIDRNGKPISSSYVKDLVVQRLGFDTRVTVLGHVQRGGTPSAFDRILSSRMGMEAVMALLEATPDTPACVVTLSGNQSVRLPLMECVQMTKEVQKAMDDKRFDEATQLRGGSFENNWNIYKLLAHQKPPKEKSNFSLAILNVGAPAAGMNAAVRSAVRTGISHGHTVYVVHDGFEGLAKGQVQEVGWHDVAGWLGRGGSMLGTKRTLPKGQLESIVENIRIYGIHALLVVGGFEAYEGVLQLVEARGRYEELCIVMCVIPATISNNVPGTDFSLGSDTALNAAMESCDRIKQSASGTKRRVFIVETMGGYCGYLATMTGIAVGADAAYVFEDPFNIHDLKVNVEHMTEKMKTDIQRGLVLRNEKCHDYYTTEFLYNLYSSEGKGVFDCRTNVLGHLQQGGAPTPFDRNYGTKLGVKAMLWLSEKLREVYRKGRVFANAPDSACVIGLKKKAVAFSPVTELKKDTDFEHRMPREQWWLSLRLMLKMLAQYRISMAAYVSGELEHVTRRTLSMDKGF
Excerpt: Recombinant N-terminal His-tagged human PFKL (NP_002617), PFKM (NP_000280), and PFKP (NM_002627.4) were generated as described ([Webb et al., 2015], [2017]). Point mutants of PFK1 were generated using the QuikChange Lightning kit (Aligent).
His-tagged PFK1 was expressed and purified as described with slight modifications ([Webb et al., 2015], [2017]). Briefly, baculovirus was generated using the Bac-to-Bac Expression system (Invitrogen). PFK1 was expressed in 2-5 × 10^6 sf9 cells at a multiplicity of infection of two for 48 h. Cells were lysed in 20 mM HEPES, pH 7.5, 80 mM potassium phosphate, 1 mM 2-mercapentoethanol, 10% glycerol, 10 mM imidazole, and EDTA-free Protease Inhibitor Cocktail (Abcam) with a Dounce homogenizer. The soluble lysate was incubated with HisPur cobalt resin (ThermoFisher Scientific). The resin was washed with 5 bead volumes lysis buffer, 10 bead volumes lysis buffer containing 2 M NaCl, and 5 further bead volumes lysis buffer. PFK1 was eluted in lysis buffer containing 100 mM imidazole. Fractions containing protein were pooled, passed over a desalting column equilibrated in freezing buffer [20 mM HEPES pH 7.5, 1 mM DTT, 500 μM ammonium sulfate, 5% glycerol, 1 mM ATP, and 100 μM EDTA] and concentrated using an Amicon Ultracel-30K Centrifugal Filter Unit (MilliporeSigma). Protein was quantified using a Bradford Protein Assay kit (ThermoFisher Scientific), and aliquotes frozen in liquid nitrogen for storage at −80°C.
PFK1 activity was determined using the rate of FBP production via an auxiliary enzyme assay adapted to a 96-well format ([Brüser et al., 2012]; [Webb et al., 2015]). The auxiliary enzymes aldolase, triosephosphate isomerase, and glycerol phosphate dehydrogenase were purchased from MilliporeSigma as ammonium sulfate slurries and desalted using an Amicon Ultracel-10K Centrifugal Filter Unit. For assays containing FBP, the rate of ADP production was determined using the auxiliary enzymes pyruvate kinase (PK) and lactate dehydrogenase (LDH) (MilliporeSigma) in a buffer containing 250 μM phosphoenolpyruvic acid, […] NADH, 50 mM HEPES pH 7.5, 100 mM KCl, 1 mM DTT, and effector concentrations as described in the text. The temperature was equilibrated to 25°C for 5 min before initiating the reaction 10 mM MgCl2. Absorbance at 340 nm was measured using a Varioskan LUX Multimode microplate reader (ThermoFisher). Kinetic parameters were generated by nonlinear regression analysis using Prism (GraphPad Software) and are the mean of a minimum of three measurements from two independent preparations of protein. One unit of activity was defined as the amount of enzyme that catalyzed the formation of 1 μmol of fructose 1,6-bisphosphate per min at 25°C. Assays for PFKM were performed at pH 7.0 due to the pH-dependence of ATP inhibition ([Trivedi and Danforth, 1966]).

| hF6P (Hill coefficient) ([1]; PFKL3Mut, pH 7.5, 225 μM ATP) | Structure (SMILES) | activation-induced reduction in PFK1 activity (PFK1) | effect on PFK1 activity in resting neutrophils (PFK1; resting neutrophils) | activation of PFKL3Mut ([1]; at 200 nM) | activation of PFKL3Mut ([1]; at 1 μM) | Vmax,F6P ([1]; PFKL3Mut, pH 7.5, 225 μM ATP) |
| --- | --- | --- | --- | --- | --- | --- |
| – | CC(=O)Nc1ccc2c(c1)OCc1cc(-c3ccccc3C#CCCCO)nn1C2 [NA-11] | prevented | minimal | no activation observed | only partial activation observed | – |
| 3.07 ± 0.87 | O=C(CO)[C@@H](O)[C@H](O)[C@H](O)COP(=O)(O)O [F6P, fructose 6-phosphate] | – | – | – | – | 17.36 ± 0.87 micromoles FBP per minute per milligram PFK1 |
| – | COc1ccccc1-c1cc2n(n1)Cc1ccc(NC(C)=O)cc1OC2 [LDC7559, reference compound] | prevented | – | – | – | – |
